The record followed here is PubChem BioAssay AID651797 (The Scripps Research Institute Molecular Screening Center, 2012).

Activity calls are given as the source filed them. The rule behind the calls is not given here.

The experiment deals with Nuclear receptor coactivator 3 (Homo sapiens) (UniProt Q9Y6Q9). The experiment is described as follows: NCOA3-driven reporter transcription inhibition – cell-based, luminescence reporter, selectivity assay for SRC1 inhibitor project, late-stage follow-up (AID 651797). The conditions noted are these: human cells, SRC3 luminescence reporter, dose response.
Sequence of Nuclear receptor coactivator 3 (Homo sapiens) (Q9Y6Q9 whole entry, looked up): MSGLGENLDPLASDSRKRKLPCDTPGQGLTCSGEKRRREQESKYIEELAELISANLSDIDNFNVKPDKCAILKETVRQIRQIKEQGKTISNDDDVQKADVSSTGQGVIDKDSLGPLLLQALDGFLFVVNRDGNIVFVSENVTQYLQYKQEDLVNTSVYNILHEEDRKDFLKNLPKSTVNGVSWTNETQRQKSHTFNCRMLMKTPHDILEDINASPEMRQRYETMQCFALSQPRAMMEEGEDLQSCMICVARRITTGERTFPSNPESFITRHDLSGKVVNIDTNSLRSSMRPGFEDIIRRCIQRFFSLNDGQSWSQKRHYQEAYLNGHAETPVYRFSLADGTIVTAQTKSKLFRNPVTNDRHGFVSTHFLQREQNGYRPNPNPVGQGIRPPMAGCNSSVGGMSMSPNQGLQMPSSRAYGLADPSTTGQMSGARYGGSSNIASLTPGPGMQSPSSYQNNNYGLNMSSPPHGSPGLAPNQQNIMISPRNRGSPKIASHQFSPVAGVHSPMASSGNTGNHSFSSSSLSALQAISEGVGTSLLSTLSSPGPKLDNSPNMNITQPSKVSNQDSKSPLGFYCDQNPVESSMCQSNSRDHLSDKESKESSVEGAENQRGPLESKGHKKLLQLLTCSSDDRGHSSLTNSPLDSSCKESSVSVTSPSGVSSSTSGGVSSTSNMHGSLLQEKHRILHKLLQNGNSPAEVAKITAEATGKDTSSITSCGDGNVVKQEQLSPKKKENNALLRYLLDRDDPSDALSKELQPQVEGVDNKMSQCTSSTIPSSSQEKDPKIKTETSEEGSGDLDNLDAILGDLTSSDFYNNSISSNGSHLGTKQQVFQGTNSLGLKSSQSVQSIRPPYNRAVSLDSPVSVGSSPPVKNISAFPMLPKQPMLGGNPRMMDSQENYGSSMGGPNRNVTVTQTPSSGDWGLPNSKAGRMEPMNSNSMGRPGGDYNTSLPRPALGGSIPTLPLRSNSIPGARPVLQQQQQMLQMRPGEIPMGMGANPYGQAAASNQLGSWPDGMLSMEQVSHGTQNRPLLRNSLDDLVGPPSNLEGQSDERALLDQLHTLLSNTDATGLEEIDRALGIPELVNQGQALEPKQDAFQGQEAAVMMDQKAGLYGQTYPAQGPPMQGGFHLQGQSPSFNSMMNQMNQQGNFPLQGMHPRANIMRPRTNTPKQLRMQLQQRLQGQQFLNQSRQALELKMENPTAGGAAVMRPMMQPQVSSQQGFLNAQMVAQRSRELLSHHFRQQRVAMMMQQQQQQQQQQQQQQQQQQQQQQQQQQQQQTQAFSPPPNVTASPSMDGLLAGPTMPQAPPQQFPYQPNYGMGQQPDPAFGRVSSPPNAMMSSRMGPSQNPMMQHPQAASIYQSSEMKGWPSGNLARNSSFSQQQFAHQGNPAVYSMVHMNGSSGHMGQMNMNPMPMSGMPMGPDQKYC

Turning to `COc1ccc(Nc2ncnc3ccc(Br)cc23)c(OC)c1`, the IC50 (as a rule, the concentration at which inhibition is half-maximal) is “inactive”.
With `COc1ccc(NC(=O)CN(C)C(=O)C2(c3ccccc3)CCCC2)cc1`, the IC50 is 8.22 µM.
As to `COc1cc([C@@H]2c3cc4c(cc3C(OC3OC5COC(C)OC5C(O)C3O)C3COC(=O)[C@@H]32)OCO4)cc(OC)c1O` (stereo partly drawn), the IC50 was 0.69 µM.
